Measured values published in patent publication US9528993B2, “Agents and methods related to screening for resistance to DR5 and reducing resistance to DR5 agonists” (The UAB Research Foundation, priority 2005, dated 2016).
{Fl} = fluorescein label

Assays:
Cdk5/p35 = Cdk5/p35 (Homo sapiens, UniProt Q00535); details: cited from earlier work
GSK-3 [1] = details: cited from earlier work
Cdk1/B = details: cited from earlier work
[2] = system: human ovarian cancer cell line, UL-3C; test: Cytotoxicity analysis (ATPLITE cell viability), UL-3C; assay type: cell-based; details: for TRA-8-mediated apoptosis of induced resistant cells in presence of chemotherapeutic agent: UL-3C resistant cells, 0.1 μM taxol, 1 μM Adriamycin, 100 μM cisplatin or 5 μM BisVIII
Experimental: (§1) Cells (1,000 cells per well) were seeded into 96-well plate in triplicate with eight concentrations (double serial dilutions from 1000 ng/ml) of TRA-8, 2E12, or TRAIL. Cell viability was determined after overnight culture using ATPLITE assay according to the manufacture's instructions (Packard Instruments, Meriden, Conn.). The results are presented as the precentage of viable cells in treated wells compared to medium control wells.
(§2) Cells (5×10^5/ml) were incubated with a starting dose of 1 ng/ml TRA-8 for two days. Cells were split with fresh medium and incubated with a double dose of TRA-8 every two days until TRA-8 dose reached 2,000 ng/ml. At each treatment cycle, the cell viability of non-induced (parental) and induced cells treated with an inducing dose of TRA-8 was determined by ATPLITE assay.

[3] = system: human breast cancer cell line, MDA-231; test: Cytotoxicity analysis (ATPLITE cell viability), MDA-231; assay type: cell-based; details: for TRA-8-mediated apoptosis of induced resistant cells in presence of chemotherapeutic agent: MDA-231 resistant cells, 0.1 μM taxol, 1 μM Adriamycin, 100 μM cisplatin or 5 μM BisVIII
Experimental: as §1, §2

GSK-3 [4] = details: cited from earlier work; remark: listed apart in the source
panel of tumor cells = test: TRA-8-induced apoptosis in panel of tumor cells after DDX3 sRNAi oligo (ATPLite); assay type: cell-based; details: including some spontaneous resistant cells; various concentrations of TRA-8 overnight
Experimental: as §1, with “Cytotoxicity analysis of tumor cell susceptibility to TRA-8, 2E12, and TRAIL-mediated apoptosis. Cells” for “Cells”, “plates” for “plate”, “an ATPLITE™” for “ATPLITE”, “manufacturer's” for “manufacture's”
(§3) They were then cloned into the BLOCK-iT U6 entry vector. The shRNA is driven by the U6 promoter and can be transiently expressed in most dividing or nondividing mammalian cell types. Resistant cells were transfected with RNAi used LIPOFECTAMINE 2000 (Invitrogen) for the RNAi response. The decreased DDX3 expression was determined by Western blot analysis using anti-DDX3 antibody 36 hours after transfection. Once decreased DDX3 expression was achieved, the siRNA oligo was synthesized (Target sequence: […] (SEQ ID NO:27): Sense RNA 5′-Fl-[…] (Fl-SEQ ID NO:27) (Fl=fluorescein); Anti-senseRNA 5′-[…]-3′ (SEQ ID NO:28), and RNAi control oligo (RI-010-DP) was purchased from Molecula (Columbia, Md.).

[5] = system: DDX3 in panel of tumor cells; test: DDX3 expression in panel of tumor cells after DDX3 sRNAi oligo (Western blot); assay type: cell-based; details: 48 hours after transfection
Text: as §3, with “The decreased DDX3 expression was determined by Western blot analysis using anti-DDX3 antibody 36 hours after transfection.” left out

[6] = system: caspase activation and PARP cleavage in MDA231 cells; test: Western blot of caspase cascade activation in MDA231 cells; assay type: cell-based, human; details: MDA-231 resistant cells, single agent alone at 4 hours (1,000 ng/ml TRA-8 or 1 μM Adriamycin)
Experimental: Tumor cells (3×10^6) were washed twice with cold PBS and lysed with 300 μl lysis buffer containing 10 mM Tris-HCl (pH 7.6), 150 mM NaCl, 0.5 mM EDTA, 1 mM EGTA, 0.1% SDS, 1 mM sodium orthovanadate, and a mixture of protease inhibitors (1 mM phenylmethylsulfonyl fluoride, 1 μg/ml pepstatin A, 2 μg/ml aprotinin). Lysates were sonicated for 10 seconds, and centrifuged for 20 minutes at 12,000 g. The cell lysates with equal amount of total proteins were boiled for 5 minutes with SDS-PAGE sample buffer. Total cell lysates were separated in 8%, 10%, or 12% SDS-PAGE, and electrophoretically transferred to nitrocellulose membrane. The blots were blocked with 5% nonfat dry milk in TBST buffer (20 mM Tris-HCl (pH 7.4), 500 mM NaCl, and 0.1% Tween 20) and incubated with primary antibody in blocking buffer at 4° C. overnight. The blots were washed three times with TBST and probed with HRP-conjugated secondary antibodies for one hour at room temperature. After washing four times with TBST, the probed proteins were visualized using the ECL Western blotting detection system (Amersham Biosciences, Piscataway, N.J.) according to the manufacturer's instructions.

Chain of Cdk5/p35 (Q00535 whole entry, species assumed): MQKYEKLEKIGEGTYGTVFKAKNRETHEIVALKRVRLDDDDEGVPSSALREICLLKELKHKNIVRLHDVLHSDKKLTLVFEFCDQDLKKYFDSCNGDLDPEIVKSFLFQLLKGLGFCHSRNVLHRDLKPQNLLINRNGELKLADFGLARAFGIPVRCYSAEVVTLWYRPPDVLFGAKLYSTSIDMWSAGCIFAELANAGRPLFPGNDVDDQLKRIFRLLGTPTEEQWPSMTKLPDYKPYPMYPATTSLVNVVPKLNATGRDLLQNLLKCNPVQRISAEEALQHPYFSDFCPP
Chain of Cdk5/p35 (Q15078 whole entry partner, species assumed): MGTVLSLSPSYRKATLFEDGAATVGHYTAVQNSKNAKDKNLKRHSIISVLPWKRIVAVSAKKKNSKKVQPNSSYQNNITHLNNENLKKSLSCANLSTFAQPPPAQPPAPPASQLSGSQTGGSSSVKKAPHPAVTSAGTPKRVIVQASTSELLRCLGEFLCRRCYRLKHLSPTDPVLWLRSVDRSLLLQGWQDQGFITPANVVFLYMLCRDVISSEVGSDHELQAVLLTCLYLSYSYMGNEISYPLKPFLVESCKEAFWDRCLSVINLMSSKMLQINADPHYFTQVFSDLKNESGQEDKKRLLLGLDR

Compound: CCCCc1c(-c2ccc(OC)cc2)[nH]c2nccnc12 [Aloisine, 7-n-Butyl-6-(4-methoxyphenyl)[5H]pyrrolo[2,3-b]pyrazine]
- IC50 (Cdk5/p35): 1500 nM
- IC50 (GSK-3 [1]): 920 nM
- IC50 (Cdk1/B): 700 nM

Compound: TRAIL: Recombinant soluble TRAIL purchased from Alexis Biochemicals
- susceptibility of TRA-8 resistant cells to induced apoptosis ([2]; UL-3CR cells vs parental): still susceptible
- susceptibility to apoptosis, in vitro cytotoxicity assay ([2]; parental UL-3C cells): susceptible to apoptosis
- susceptibility of TRA-8 resistant cells to induced apoptosis ([3]; MDA-231R cells vs parental): still susceptible
- susceptibility to apoptosis, in vitro cytotoxicity assay ([3]; parental MDA-231 cells): susceptible to apoptosis

Compound: CC(C)NCC(O)c1ccc(O)c(O)c1 (stereo not shown) [Isoproterenol]
- decrease of GSK-3 activity (GSK-3 [4]): approximately 50%

Compound: CC(=O)O[C@H]1C(=O)[C@@]2(C)[C@H]([C@H](OC(=O)c3ccccc3)[C@]3(O)C[C@H](OC(=O)[C@H](O)[C@@H](NC(=O)c4ccccc4)c4ccccc4)C(C)=C1C3(C)C)[C@]1(OC(C)=O)CO[C@@H]1C[C@@H]2O [Taxol]
- TRA-8-mediated apoptosis of induced resistant cells in presence of chemotherapeutic agent [2]: TRA-8 dose-dependent response was restored
- TRA-8-mediated apoptosis of induced resistant cells in presence of chemotherapeutic agent [3]: TRA-8 dose-dependent response was restored

Compound: DDX3 RNAi: synthesized siRNA oligo, target sequence GGAGAAATTATCATGGGAAAC (SEQ ID NO:27), antisense SEQ ID NO:28 (sense GGAGAAAUUAUCAUGGGAAAC; antisense GUUUCCCAUGAUAAUUUCUCC; sense: RNA, 5' {Fl}, backbone not given here; antisense: RNA, backbone not given here)
- TRA-8-induced apoptosis (panel of tumor cells): enhanced the TRA8-induced apoptosis
- amount of endogenous DDX3 [5]: reduced the amount of endogenous DDX3

Compound: [Be+2] [Beryllium ions]
- inhibition of GSK-3 (GSK-3 [1]): micromolar range

Compound: Cn1cc(C2=C(c3cn(CCCN)c4ccccc34)C(=O)NC2=O)c2ccccc21 [Bisindolymaleimide VIII]
- TRA-8-mediated apoptosis of induced resistant cells in presence of chemotherapeutic agent [2]: TRA-8 dose-dependent response was restored
- TRA-8-mediated apoptosis of induced resistant cells in presence of chemotherapeutic agent [3]: TRA-8 dose-dependent response was restored

Compound: Cn1cc(C2=C(c3ccc(Cl)cc3Cl)C(=O)NC2=O)c2ccccc21 [SB216763]
- inhibition of GSK-3 (GSK-3 [1]): potent

Compound: insulin: comparator for decrease of GSK-3 activity
- decrease of GSK-3 activity (GSK-3 [4]): approximately 50%

Compound: N.N.[Cl][Pt][Cl] [Cisplatin]
- TRA-8-mediated apoptosis of induced resistant cells in presence of chemotherapeutic agent [2]: TRA-8 dose-dependent response was restored
- TRA-8-mediated apoptosis of induced resistant cells in presence of chemotherapeutic agent [3]: TRA-8 dose-dependent response was restored

Compound: COc1cccc2c1C(=O)c1c(O)c3c(c(O)c1C2=O)C[C@@](O)(C(=O)CO)C[C@@H]3O[C@H]1C[C@H](N)[C@H](O)[C@H](C)O1 [Adriamycin]
- activation of caspases 2, 3, 8, 9 [6]: did not induce any significant activation
- TRA-8-mediated apoptosis of induced resistant cells in presence of chemotherapeutic agent [2]: TRA-8 dose-dependent response was restored
- TRA-8-mediated apoptosis of induced resistant cells in presence of chemotherapeutic agent [3]: TRA-8 dose-dependent response was restored
